Entries after “also recorded” stand apart in the source; their conditions may differ.
Assays:
[1] = in vitro; conditions: human, kidney or brush border membranes, pH 7.4
Description: The tubes were incubated in VorTemp 56™ (Eurotech Labs, UK) at 37° C. vortexed at 500 RPM. At time points of 0, 1, 2, 3, 4, and 5 hours, 200 μl STOP solution (50% ACN, 1% formic acid) was added to a given tube, and the samples were allowed to incubate until the end of the experiment. The samples were collected after 5 hours, centrifuged, and 200 μl of the supernatants were transferred into mass spectrometry vials. The intensities of the mother ions in each vial were analyzed with API 150EX™ mass spectrometer (Applied Biosystems, Foster City, Calif.) and quantified using the ANALYST™ program.
The hKBBM assay was also performed in the presence of valinepyrrolidide, a DPP-IV inhibitor.

[2] = system: NIH/Swiss mice; assay: Oral glucose tolerance test (OGTT), glucose lowering; type: in vivo; conditions: IP injection, 2 hour fasted NIH/Swiss mice, FIGS. 5 and 6
Description: . Test compounds were injected IP (t=0 min) immediately following baseline measurements of 2 hour fasted NIH/Swiss mice. Blood samples were taken at 60, 120, and 180 minutes after injection. In some assays, samples were also taken at 240 minutes after the injection. Blood glucose was measured with a One-Touch® Ultra® glucose meter (LifeScan, Inc., Milpitas, Calif.). […].
The tests were performed as described in Example 5.

[3] = target: T1, ACE from rabbit lung (Oryctolagus cuniculus, UniProt P12822); assay: ACE inhibition assay; type: biochemical
T1 construct: ACE from rabbit lung; purchased Sigma Chemical Co; host or cells: rabbit lung tissue
T1 sequence (P12822 34-1310): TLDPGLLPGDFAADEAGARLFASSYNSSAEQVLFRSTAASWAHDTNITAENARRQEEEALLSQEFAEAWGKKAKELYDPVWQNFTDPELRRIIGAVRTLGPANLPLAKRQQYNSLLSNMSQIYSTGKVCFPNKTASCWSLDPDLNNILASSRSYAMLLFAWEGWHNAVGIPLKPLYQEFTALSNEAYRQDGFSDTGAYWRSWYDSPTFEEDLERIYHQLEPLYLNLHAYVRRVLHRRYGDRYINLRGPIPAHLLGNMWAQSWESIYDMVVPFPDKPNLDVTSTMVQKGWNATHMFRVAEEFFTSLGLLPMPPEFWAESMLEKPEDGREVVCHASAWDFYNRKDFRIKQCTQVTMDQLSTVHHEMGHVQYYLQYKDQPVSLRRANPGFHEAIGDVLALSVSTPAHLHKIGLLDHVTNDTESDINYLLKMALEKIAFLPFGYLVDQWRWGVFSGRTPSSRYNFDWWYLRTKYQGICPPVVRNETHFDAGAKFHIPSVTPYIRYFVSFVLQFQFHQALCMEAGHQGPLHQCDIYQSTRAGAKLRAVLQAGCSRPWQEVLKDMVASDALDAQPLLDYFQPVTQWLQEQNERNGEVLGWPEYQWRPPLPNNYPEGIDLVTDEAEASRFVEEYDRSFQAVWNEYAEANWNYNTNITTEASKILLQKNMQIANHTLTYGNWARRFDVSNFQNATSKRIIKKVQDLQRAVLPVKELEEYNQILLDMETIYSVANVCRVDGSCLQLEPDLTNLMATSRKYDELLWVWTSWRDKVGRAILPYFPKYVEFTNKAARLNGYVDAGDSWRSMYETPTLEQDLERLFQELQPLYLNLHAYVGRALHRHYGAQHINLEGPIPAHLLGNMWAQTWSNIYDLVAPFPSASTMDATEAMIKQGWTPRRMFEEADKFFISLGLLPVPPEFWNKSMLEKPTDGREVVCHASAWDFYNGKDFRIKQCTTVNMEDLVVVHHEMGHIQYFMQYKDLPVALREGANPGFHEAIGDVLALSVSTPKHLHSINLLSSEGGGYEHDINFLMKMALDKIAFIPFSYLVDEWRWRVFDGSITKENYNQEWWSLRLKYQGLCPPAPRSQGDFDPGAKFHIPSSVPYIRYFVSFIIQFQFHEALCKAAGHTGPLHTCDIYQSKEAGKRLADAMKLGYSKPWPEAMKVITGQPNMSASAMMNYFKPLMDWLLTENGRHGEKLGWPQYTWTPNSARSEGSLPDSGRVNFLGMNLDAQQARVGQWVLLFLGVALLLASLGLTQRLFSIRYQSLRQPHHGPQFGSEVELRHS
Description: Peptide-ACE peptidase inhibitor conjugate compounds were assessed in an ACE inhibition assay using purified ACE enzyme and chromogenic substrates. An ACE stock solution was prepared by dissolving 0.1 unit of enzyme (ACE from rabbit lung, Sigma Chemical Co., St. Louis, Mo.) in 0.640 mL of HEPES buffer (0.1 M, pH=8). A 2 mM stock solution of substrate (N-benzyloxycarbonyl-Phe-His-Leu-OH) dissolved in methanol. The ACE inhibitor compounds were dissolved in phosphate buffer (0.1 M, pH=8) at concentrations of 0.0, 1, 10, 20, 60 and 100 μM. For the inhibition assay, six 2 mL microcentrifuge tubes were prepared containing 1.45 mL of phosphate buffer pH=8, 0.05 mL of 10% NaCl and 0.015 mL of substrate solution. To each microcentrifuge tube was added 0.015 mL of one of the ACE inhibitor compound's stock solutions. The solutions were heated at 37° C. for about 5 minutes. The reaction was started by the addition of 5 μL of the ACE stock solution to each tube mixture (30 seconds in between). The reaction mixtures were incubated at 37° C. After 5 min, 10 min, 30 min and 60 min., aliquots of 100 μL were taken from each tube (each sample was taken in intervals of 30 seconds). Tubes containing the 100 μL sample were floated in a boiling water bath for 5 min. and then cooled. The reaction samples were then treated with 20 μL of 2M NaOH and 20 μL of 0.1% phthaldialdehyde solution. The tubes were shaken for 4 minutes and 10 μL of 6 M HCl were added. […] Initial rates were determined from linear portions of product release curves. Starting substrate concentration in all assays was 20 μM. Apparent binding constants (Kd^app or Ki^app) of inhibitors to ACE were determined by fitting inhibition curves (initial rate vs. inhibitor concentration) to equation:
[formula] where v0 is reaction rate in the absence of inhibitor and [I]-inhibitor concentration. Fits were done by least-squares method using KaleidaGraph 3.6 (Synergy Software, Reading Pa.).

[4] = system: Dahl salt-sensitive (DSS) male rats; assay: Congestive heart failure (CHF) in vivo assay; conditions: 10 μg/kg/day subcutaneous infusion, high-salt diet
Description: In this assay, Dahl salt-sensitive (DSS) male rats were weaned at 21 days of age, maintained on a low-salt (LS) diet (0.2% NaCl) for 2 weeks. Rats were anesthetized with ketamine/xylazine (50 mg/kg/10 mg/kg, IP) and telemetry transmitters (Data Sciences, Inc.) were inserted to the aortic artery when rats were at 5 weeks of age. After surgery, the rats were allowed 10 days to recuperate before their BP (systolic and diastolic pressures) was recorded.
HS control animals (n=10 rats) were administered vehicle (50% DMSO) and fed HS in the same manner. LS control animals (n=5 rats) were maintained on the LS diet.

[5] = system: recombinant DPP-IV; assay: recombinant DPP-IV in assay buffer (25 mM Tris-HCl, 140 mM NaCl, 10 mM KCl, pH 7.4); conditions: room temperature, up to 15 hours

| Compound | remaining at 4 h [1] | glucose lowering in OGTT (in words) [2] | not cleaved [5] | also measured |
| --- | --- | --- | --- | --- |
| CC[C@H](C)[C@H](NC(=O)[C@H](Cc1ccccc1)NC(=O)[C@H](CCC(=O)O)NC(=O)[C@H](CCCCN)NC(=O)[C@H](C)NC(=O)[C@H](C)NC(=O)[C@H](CCC(N)=O)NC(=O)CNC(=O)[C@H](CCC(=O)O)NC(=O)[C@H](CC(C)C)NC(=O)[C@H](Cc1ccc(O)cc1)NC(=O)[C@H](CO)NC(=O)[C@H](CO)NC(=O)[C@@H](NC(=O)[C@H](CC(=O)O)NC(=O)[C@H](CO)NC(=O)[C@@H](NC(=O)[C@H](Cc1ccccc1)NC(=O)[C@@H](NC(=O)CNC(=O)[C@H](CCC(=O)O)NC(=O)[C@H](C)NC(=O)[C@H](Cc1c[nH]cn1)NC(=O)COCCOCCNC(=O)[C@@H]1CCCN1C(=O)[C@H](C)NC(CCc1ccccc1)C(=O)O)[C@@H](C)O)[C@@H](C)O)C(C)C)C(=O)N[C@@H](C)C(=O)N[C@@H](Cc1c[nH]c2ccccc12)C(=O)N[C@@H](CC(C)C)C(=O)N[C@H](C(=O)N[C@@H](CCCCN)C(=O)NCC(=O)N[C@@H](CCCNC(=N)N)C(N)=O)C(C)C (stereo partly drawn) [Compound 4983, (R,S)-1-[N^2-(1-carboxy-3-phenylpropyl)-L-ala]-L-pro-8-amino-3,6-dioxaoctanoyl-GLP-1-(7-36) amide] | > 80% | enhance glucose-lowering action compared to GLP-1 | – | – |
| CC[C@H](C)[C@H](NC(=O)[C@H](Cc1ccccc1)NC(=O)[C@H](CCC(=O)O)NC(=O)[C@H](CCCCN)NC(=O)[C@H](C)NC(=O)[C@H](C)NC(=O)[C@H](CCC(N)=O)NC(=O)CNC(=O)[C@H](CCC(=O)O)NC(=O)[C@H](CC(C)C)NC(=O)[C@H](Cc1ccc(O)cc1)NC(=O)[C@H](CO)NC(=O)[C@H](CO)NC(=O)[C@@H](NC(=O)[C@H](CC(=O)O)NC(=O)[C@H](CO)NC(=O)[C@@H](NC(=O)[C@H](Cc1ccccc1)NC(=O)[C@@H](NC(=O)CNC(=O)[C@H](CCC(=O)O)NC(=O)[C@H](C)NC(=O)[C@H](Cc1c[nH]cn1)NC(=O)COCCOCCNC(=O)COCCOCCNC(=O)[C@@H]1CCCN1C(=O)[C@H](C)NC(CCc1ccccc1)C(=O)O)[C@@H](C)O)[C@@H](C)O)C(C)C)C(=O)N[C@@H](C)C(=O)N[C@@H](Cc1c[nH]c2ccccc12)C(=O)N[C@@H](CC(C)C)C(=O)N[C@H](C(=O)N[C@@H](CCCCN)C(=O)NCC(=O)N[C@@H](CCCNC(=N)N)C(N)=O)C(C)C (stereo partly drawn) [Compound 4984, (R,S)-1-[N^2-(1-carboxy-3-phenylpropyl)-L-ala]-L-pro-8-amino-3,6-dioxaoctanoyl-8-amino-3,6-dioxaoctanoyl-GLP-1-(7-36) amide] | > 80% | enhance glucose-lowering action compared to GLP-1; also recorded: prolonged effect 4 hours after dosing | – | – |
| CC[C@H](C)[C@H](NC(=O)[C@H](Cc1ccccc1)NC(=O)[C@H](CC(C)C)NC(=O)[C@H](CCCNC(=N)N)NC(=O)[C@@H](NC(=O)[C@H](C)NC(=O)[C@H](CCC(=O)O)NC(=O)[C@H](CCC(=O)O)NC(=O)[C@H](CCC(=O)O)NC(=O)[C@H](CC(C)C)NC(=O)[C@H](CCC(N)=O)NC(=O)[C@H](CCCCN)NC(=O)[C@H](CO)NC(=O)[C@H](CC(C)C)NC(=O)[C@H](CC(=O)O)NC(=O)[C@H](CO)NC(=O)[C@@H](NC(=O)[C@H](Cc1ccccc1)NC(=O)[C@@H](NC(=O)CNC(=O)[C@H](CCC(=O)O)NC(=O)CNC(=O)[C@@H](N)Cc1c[nH]cn1)[C@@H](C)O)[C@@H](C)O)C(C)C)C(=O)N[C@@H](CCC(=O)O)C(=O)N[C@@H](Cc1c[nH]c2ccccc12)C(=O)N[C@@H](CC(C)C)C(=O)N[C@@H](CCCCN)C(=O)N[C@@H](CCC(N)=O)C(=O)NCC(=O)NCC(=O)N1CCC[C@H]1C(=O)N[C@@H](CO)C(=O)N[C@@H](CCCCN)C(=O)N[C@@H](CCC(=O)O)C(=O)N[C@H](C(=O)N[C@H](C(=O)N[C@@H](CO)C(=O)NCCOCCOCCOCC(=O)NCCOCCOCC(=O)NCCCC[C@H](NC(CCc1ccccc1)C(=O)O)C(=O)N1CCC[C@H]1C(=O)O)[C@@H](C)CC)[C@@H](C)CC (stereo partly shown) [Compound 5715] | – | – | – | IC50 [3]: 260 nM; mean diastolic blood pressure at week 5 [4]: 112 mmHg; mean heart rate at week 5 [4]: 381; mean systolic blood pressure at week 5 [4]: 161 mmHg |
| GLP-1(7-37)-GG-(S)-2,6-diamino-1-(thiazolidin-2-cyano-3-yl)hexan-1-one amide | – | – | expected product ions were not observed; DPP-IV resistant under the test conditions | – |
| GLP-1(7-37)-GG-(S)-2,6-diamino-1-(thiazolidin-3-yl)hexan-1-one amide | – | – | expected product ions were not observed; DPP-IV resistant under the test conditions | – |
